From article PMC7044277 (Nature Communications, 2020)
Values joined by “and” are separate entries in the source; they are usually repeats but may differ in a detail not shown here. Equal values may be shown once.

Legend:
Assay type in all cases: cell-based
320 non-olfactory GPCRs [1] = target: T1, 320 non-olfactory GPCRs (Homo sapiens, UniProt P35408); conditions: receptor PTGER4; replicate values, Fig_4g
T1 construct: expressed in transfected cells; host or cells: HTLA cells

320 non-olfactory GPCRs [2] = target: T2, 320 non-olfactory GPCRs (Homo sapiens, UniProt P48145); conditions: receptor NPBW1; replicate values, Fig_4g
T2 construct: expressed in transfected cells; host or cells: HTLA cells

320 non-olfactory GPCRs [3] = target: T3, 320 non-olfactory GPCRs (Homo sapiens, UniProt Q01726); conditions: receptor MC1R; replicate values, Fig_4g
T3 construct: expressed in transfected cells; host or cells: HTLA cells

320 non-olfactory GPCRs [4] = target: T4, 320 non-olfactory GPCRs (Homo sapiens, UniProt P34995); conditions: receptor PTGER1; replicate values, Fig_4g
T4 construct: expressed in transfected cells; host or cells: HTLA cells
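Note: fold over basal response of each receptor without drug.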

T3 sequence (Q01726 whole entry): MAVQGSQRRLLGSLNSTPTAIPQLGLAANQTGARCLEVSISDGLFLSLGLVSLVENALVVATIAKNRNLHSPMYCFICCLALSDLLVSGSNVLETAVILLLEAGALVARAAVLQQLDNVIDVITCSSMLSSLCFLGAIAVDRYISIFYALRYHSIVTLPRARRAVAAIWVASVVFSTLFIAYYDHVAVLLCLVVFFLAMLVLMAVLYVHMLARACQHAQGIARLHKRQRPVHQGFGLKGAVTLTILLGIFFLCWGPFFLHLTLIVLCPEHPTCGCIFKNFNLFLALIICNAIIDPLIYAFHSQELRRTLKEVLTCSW
T4 sequence (P34995 whole entry): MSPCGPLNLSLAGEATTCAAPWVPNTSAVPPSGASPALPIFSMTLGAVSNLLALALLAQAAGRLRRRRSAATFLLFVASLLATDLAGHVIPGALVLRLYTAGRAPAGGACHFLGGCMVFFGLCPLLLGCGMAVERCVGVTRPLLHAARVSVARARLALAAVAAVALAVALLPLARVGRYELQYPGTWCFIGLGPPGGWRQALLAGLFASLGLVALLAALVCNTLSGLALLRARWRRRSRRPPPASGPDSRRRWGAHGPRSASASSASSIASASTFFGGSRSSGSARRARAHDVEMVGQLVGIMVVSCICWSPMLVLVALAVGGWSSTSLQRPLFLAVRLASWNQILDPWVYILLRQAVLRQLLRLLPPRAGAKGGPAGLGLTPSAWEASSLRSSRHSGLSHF
T2 sequence (P48145 whole entry): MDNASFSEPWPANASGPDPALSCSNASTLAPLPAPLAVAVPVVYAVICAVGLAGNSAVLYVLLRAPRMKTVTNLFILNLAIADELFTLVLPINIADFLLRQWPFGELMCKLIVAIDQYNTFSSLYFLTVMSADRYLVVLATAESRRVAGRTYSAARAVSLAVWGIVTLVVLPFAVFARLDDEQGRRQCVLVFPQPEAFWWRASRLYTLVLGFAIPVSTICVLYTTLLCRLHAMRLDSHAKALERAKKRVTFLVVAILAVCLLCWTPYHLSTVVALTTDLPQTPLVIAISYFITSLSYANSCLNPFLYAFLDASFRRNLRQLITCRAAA
T1 sequence (P35408 whole entry): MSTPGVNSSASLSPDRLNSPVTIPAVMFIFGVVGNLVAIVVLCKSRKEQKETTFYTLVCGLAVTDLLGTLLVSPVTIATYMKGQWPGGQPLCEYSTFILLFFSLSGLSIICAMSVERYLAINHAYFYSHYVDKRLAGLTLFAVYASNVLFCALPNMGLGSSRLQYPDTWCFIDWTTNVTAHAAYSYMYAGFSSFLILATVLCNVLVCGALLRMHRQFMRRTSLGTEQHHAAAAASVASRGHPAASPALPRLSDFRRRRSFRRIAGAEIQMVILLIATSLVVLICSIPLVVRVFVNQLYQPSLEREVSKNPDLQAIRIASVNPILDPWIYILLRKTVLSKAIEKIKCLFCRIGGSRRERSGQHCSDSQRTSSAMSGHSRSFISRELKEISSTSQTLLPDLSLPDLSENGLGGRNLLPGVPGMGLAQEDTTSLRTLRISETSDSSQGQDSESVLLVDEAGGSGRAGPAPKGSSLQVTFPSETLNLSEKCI

In the case of `CCOc1cccc2cc(C(C)NCC3(O)CCCCC3)oc12` (stereo not shown) [O4LE6], the “GPCRome agonism screen response” value (320 non-olfactory GPCRs [1]) is reported as 2.508 and 1.456 and 1.732 and 0.428, the “GPCRome agonism screen response” value (320 non-olfactory GPCRs [2]) is reported as 1.094 and 1.2601 and 1.077 and 0.8815 and the “GPCRome agonism screen response” value (320 non-olfactory GPCRs [3]) is reported as 1.144 and 0.3717 and 0.6675 and 1.8673. The “GPCRome agonism screen response” value (320 non-olfactory GPCRs [4]) was 0.6283 and 0.5508 and 0.6804 and 0.7397.
